Test results published in patent US20250283050A1, “METHOD OF CANCER TREATMENT” (priority 2021, published 2025).
“Also recorded” adds a separate entry of the source.

Legend:
[1] = system: CD8 T cells in NSCLC-TME; assay: en bloc NSCLC culture: PD-1 antibody activation of CD8 T cells (FACS and ELISA of IL-2, IFN-γ); assay type: cell-based, human
Experimental: Tumor infiltrating T (TIL) cells and TAMs were then isolated, and their functional status were determined by FACS analysis.
Single cell suspensions were then generated and stained with FITC conjugated anti-CD8 antibody. The cells were then fixed, permeabilized, stained with PE-conjugated anti-IL2, or anti-IFNy antibodies and analyzed by a flow cytometry.
The culture media were collected after 48 hours. The levels of IL-2, and IFN-γ were quantified using ELISA kits, and statistical significance was determined by a two-way ANOVA analysis.
Levels of IL-1B, IL-2, IFN-γ and TNF-α were quantified using ELISA kits obtained from eBiosciences. Analyses were conducted according to the manufacturer's instructions. Triplicate wells were plated for each condition.
(§1) Tumor tissue were washed with 1×PBS buffer plus antibiotics and then cut into 0.5 cm pieces. Tissues were cultured in 2 mL of RPMI 1640 medium, supplemented with 2-10% FBS (Sigma) and 1% antibiotic-antimycotic solution (Gibco) in 24-well plate (Corning). The cultures were incubated at a 37° C., 5% CO2 incubator. […] To evaluate the effect of chemotherapeutic agents, chemo-reagents at indicated concentration or PBS was used instead of the anti-PD-1 antibody. For en bloc tissue and macrophage co-culture assay, 0.25×10^6 GFP-Hom-1 or control GFP transfected autologous macrophages of the same patient were added to the en bloc tissue culture wells. […]

[2] = system: NSCLC cancer cells; assay: en bloc NSCLC culture: cancer cell viability by PI-staining and FACS; assay type: cell-based, human; details: PD-1 antibody alone, 5 days
Experimental: Single cell suspensions were then obtained by mechanical disruption. The tumor cells were fixed and permeabilized, and were stained with CK7 antibodies and non-tumor epithelial cells were stained with EP4 antibodies. The cells were labeled with PI and percentage of PI positive cells were determined by FACS analysis.
As TME has been implicated in ICI resistance, it was next shown that reversal of immune suppression at NSCLC-TME increased efficacy of PD-1 antibodies. Specifically, en block NSCLC or control nLung tissues were treated with PD-1 or control antibodies, and co-cultured with autologous TAMs transfected with Hom-1 or control GFP. The effects of co-culturing were determined by FACS analysis of cancer or normal epithelial cell viability.
Tumor tissue were washed with 1×PBS buffer plus antibiotics and then cut into 0.5 cm pieces. Tissues were cultured in 2 mL of RPMI 1640 medium, supplemented with 2-10% FBS (Sigma) and 1% antibiotic-antimycotic solution (Gibco) in 24-well plate (Corning). […]
Single cell suspensions generated from en bloc tissue culture were washed with FACS staining solution (PBS plus 2% FBS), fixed and permeabilized (Invitrogen) and then stained with Ber-EP4 antibodies for normal epithelial cells and CK7, CK19 and CK20 for cancer cells for 30 minutes on ice. […] Cell viability were then analyzed with a flow cytometry.

[3] = system: TAMs and Treg in NSCLC-TME; assay: en bloc NSCLC culture: effects of PD-1 antibody on TAMs and Treg (FACS, qRT-PCR of Hom-1); assay type: cell-based, human; details: 1 μg/mL Pembrolizumab, 48 hours
Experimental: The effects of the treatment on TAMs were determined by FACS analysis of cell surface expression of CD68 and CD206 and qRT-PCR analysis of Hom-1 expression levels.
Total RNA was isolated by the TRIzol reagent (Life Technologies) and RNA amounts were measured by NanoDrop 2000 (Thermo Scientific). Equal amount of RNA was used for first-strand cDNA synthesis with SuperScript III First-Strand Synthesis System (Life Technologies) according to the manufacturer's protocol. The AccuPrime Taq DNA polymerase system (Life Technologies) was used to amplify Hom-1 cDNA with conventional PCR. Quantitative measurements of Hom-1 and other cDNA were carried out with SYBR Green, using a Mastercycler ep Gradient S (Eppendorf). GAPDH was used as a house keeping gene to normalize mRNA expression. Relative expression profiles of mRNAs were calculated using the comparative Ct method (DDCT method).
as §1, with “antibody.” for “antibody. For en bloc tissue and macrophage co-culture assay, 0.25×10^6 GFP-Hom-1 or control GFP transfected autologous macrophages of the same patient were added to the en bloc tissue culture wells.”

[4] = system: primary human NSCLC; assay: individual NSG-PDX models of primary human NSCLC; assay type: in vivo, NSG mice; details: infusion of PD-1 antibody alone
Text: Specifically, individual NSG-PDX models of primary NSCLC were generated by engrafting small pieces of primary NSCLC tissues into subcutaneous space on the dorsal lateral side of NSG mice.
Individual NSG-PDX models of primary human lung cancers were developed according to standard procedure. All animal experiments were approved by the Institutional Animal Care and Use Committee. Briefly, 8-week-old NOD.Cg-Prkdc^scid Il2rg^tm1Wjl/SzJ mice (commonly known as NOD scid gamma, or NSG mice) were purchased from the Jackson Laboratory and maintained under specific pathogen-free conditions. NSCLC tumors were cut into around 0.5 cm pieces and then surgically implanted into subcutaneous space on the dorsal side of NSG mice. […] The tumor growth was monitored twice weekly and measured by a caliper for 6 weeks. Tumor volumes were calculated according to the formula ½ (length×width^2).

[5] = system: esophageal cancer; assay: en bloc tumor culture with chemotherapeutic agent and Hom-1-TAMs: esophageal cancer; assay type: cell-based; details: agent plus Hom-1-TAMs
Experimental: (§2) Besides CRC, Hom-1-TAMs reverse immune polarity of PDAC and NSCLC TME (data not shown). The effects of Hom-1-TAM on tumoricidal effects of DOX were further explored on other tumor types, such as PDAC, NSLC, esophageal cancer and stomach cancers.
(§3) Additional chemo-reagents used in this study are listed below.
(§4) Tumor tissue were washed with 1×PBS buffer plus antibiotics and then cut into 0.5 cm pieces. Tissues were cultured in 2 mL of RPMI 1640 medium, supplemented with 2-10% FBS (Sigma) and 1% antibiotic-antimycotic solution (Gibco) in 24-well plate (Corning). The cultures were incubated at a 37° C., 5% CO2 incubator. […] To evaluate the effect of chemotherapeutic agents, chemo-reagents at indicated concentration or PBS was used instead of the anti-PD-1 antibody. For en bloc tissue and macrophage co-culture assay, 0.25×10^6 GFP-Hom-1 or control GFP transfected autologous macrophages of the same patient were added to the en bloc tissue culture wells. After gently shaking, the plate was incubated at 37° C., 5% CO2 for 3-5 days. The en bloc tissues were then subjected to single 1 cell isolation and analysis as described.

[6] = system: non-small cell lung cancer (NSCLC); assay: en bloc tumor culture with chemotherapeutic agent and Hom-1-TAMs: NSCLC; assay type: cell-based; details: agent plus Hom-1-TAMs
Experimental: as §2, §3, §4

[7] = system: colorectal cancers (CRC) tumor cells; assay: en bloc CRC culture: tumor cell death by PI-staining and FACS; assay type: cell-based, human; details: en bloc CRC culture
Experimental: To this end, en bloc colorectal cancers (CRC) or control non-tumor colon mucosal tissues from the same patients were incubated in RPMI based media and treated with DOX for 3 days. The effects of the treatment on tumor or normal cells were then determined by PI-staining and FACS analysis.
To this end, en bloc CRC tumor or control colon mucosal tissues were treated with DOX at low non-cytotoxic dosage and then co-cultured with TAMs transfected with Hom-1 or control GFP. After 5 days of co-culturing, the effects of the treatment on the survival of tumor or control normal epithelial cells were determined by PI staining and FACS analysis.
as §4
Single cell suspensions generated from en bloc tissue culture were washed with FACS staining solution (PBS plus 2% FBS), fixed and permeabilized (Invitrogen) and then stained with Ber-EP4 antibodies for normal epithelial cells and CK7, CK19 and CK20 for cancer cells for 30 minutes on ice. After washes with FACS staining solution, cells were stained with FITC-conjugated secondary antibodies for 30 minutes on ice. The cells were then washed with FACS staining solution and fixed in 2% paraformaldehyde in PBS for 30 min or overnight. The cells were washed and resuspended in 200 μL of FACS staining solution and 5 μL of PI staining solution (eBioscience/Fisher Scientific) were added in the solution for 15 minutes. Cell viability were then analyzed with a flow cytometry.

## Pembrolizumab [PD-1 antibody]
[1]; 1 μg/mL Pembrolizumab vs human IgG4, 24 or 48 hours
  CD8 T cell activation (expression and secretion of IL-2 and IFN-γ): activates CD8 T cells in TME; also recorded: activates CD8^+ CTL
[1]; various concentrations, 48 hours, ELISA
  dosage dependence of PD-1 antibody effect on CD8 T cell activation: dosage dependent
[2]
  PI-staining of tumor cells (tumoricidal effect): modest tumoricidal effects on cancer cells
[2]; listed as anti-PD-1 antibodies
  PI-staining of tumor cells (tumoricidal effect): modest increase of PI-staining of tumor cells
[3]
  phenotypical changes of Treg cells and TAMs: no significant phenotypical changes of the Treg cells and TAMs
[3]; qRT-PCR
  expression of Hom-1 in TAMs: did not alter the expression of Hom-1 in TAMs
[4]
  inhibition of tumorigenesis: modest inhibition of tumorigenesis

## N.N.[Cl][Pt][Cl] [Cisplatin]
[5]
  tumoricidal effects promoted by Hom-1-TAMs: promoted
[6]
  tumoricidal effects promoted by Hom-1-TAMs: promoted

## O=c1[nH]cc(F)c(=O)[nH]1 [5-FU]
[7]; agent alone, dose range
  cytocidal effects on tumor cells: dosage-dependent cytocidal effects on tumor cells
[7]; agent plus Hom-1-TAMs
  tumoricidal effects promoted by Hom-1-TAMs: promoted
